Results from patent US20260138962A1, “SYNTHESIS OF DERIVATIVES OF SIPH[…] THERAPEUTIC USE THEREOF” (priority 2022, published 2026).
In brackets after ≈: the same amount, converted by molar mass.

Tests used:
Test in all cases: microbe, parasite or virus in culture
Assay type in all cases: cell-based
[1] = system: SARS-CoV-2 Wuhan isolate (wild type); details: Severe acute respiratory syndrome coronavirus 2, Vero C1008; positive control at 3.77 μg/ml; […]
[2] = system: SARS-CoV-2 Beta variant; details: Severe acute respiratory syndrome coronavirus 2, Vero C1008
[3] = system: SARS-CoV-2 Delta variant; details: Severe acute respiratory syndrome coronavirus 2, Vero C1008
[4] = positive control at 3.77 μg/ml, […]

SMILES | inhibition at 3.77 µg/mL [1] | inhibition at 3.77 µg/mL [2, 4] | inhibition at 3.77 µg/mL [3, 4] | IC50 ([2]; Beta strain, in vitro) | inhibition at 0.5 µg/mL ([2]; Beta, 0.5 μg/ml, Vero E6 cells) | inhibition at 2 µg/mL ([2]; Beta, 2 μg/ml, Vero E6 cells) | inhibition at 5 µg/mL ([2]; Beta, 5 μg/ml, Vero E6 cells) | inhibition at 16 µg/mL ([2]; Beta, 16 μg/ml, Vero E6 cells) | inhibition at 50 µg/mL ([2]; Beta, 50 μg/ml, Vero E6 cells) | IC50 ([3]; Delta strain, in vitro) | inhibition at 0.5 µg/mL ([3]; Delta, 0.5 μg/ml, Vero E6 cells) | inhibition at 2 µg/mL ([3]; Delta, 2 μg/ml, Vero E6 cells) | inhibition at 5 µg/mL ([3]; Delta, 5 μg/ml, Vero E6 cells) | inhibition at 16 µg/mL ([3]; Delta, 16 μg/ml, Vero E6 cells) | inhibition at 50 µg/mL ([3]; Delta, 50 μg/ml, Vero E6 cells)
CCC(CC)COC(=O)[C@H](C)N[P@](=O)(OC[C@H]1O[C@@](C#N)(c2ccc3c(N)ncnn23)[C@H](O)[C@@H]1O)Oc1ccccc1 [Remdesivir, reference compound] | 100% | 100% | 100% | – | – | – | – | – | – | – | – | – | – | – | –
CC1=C2C[C@@H]3[C@@H](C)C=CC(=O)[C@@]3(C)C[C@@]2(O)OC1=O [HLS, (4aR,5S,8aS,9aR)-9a-hydroxy-3,5,8a-trimethyl-4a,5,9,9a-tetrahydronaphtho[2,3-b]furan-2,8(4H,8aH)-dione] | – | – | – | 8.93 µg/mL (≈ 34 µM) | 25% | 25% | 50% | 75% | 100% | 6.15 µg/mL (≈ 23.4 µM) | 0% | 25% | 50% | 75% | 100%
